Assay results as given in ChEMBL document CHEMBL3046756, “Synthesis, anti-inflammatory, and structure antioxidant activity relationship of novel 4-quinazoline” (Med Chem Res, 2013).
Calls of active or inactive are those of the source. No cut-off for these calls is given here.

Assays:
Assay type in all cases: functional
Rattus norvegicus [1] = assay: Effect on ALP level in Wistar Rattus norvegicus (rat) serum at 150 mg/kg, po qd after 10 days (reference value: 39.5 +/- 3.86 U/I)
Rattus norvegicus [2] = assay: Effect on gamma-glutamyl transferase level in Wistar Rattus norvegicus (rat) serum at 50 mg/kg, po qd after 10 days (reference value: 0.57 +/- 0.04 U/I)
[3] = Antioxidant activity assessed as Fe2+ chelating activity at 1.5 mg/ml after 60 min by spectrophotometric analysis
Rattus norvegicus [4] = assay: Effect on SGPT level in Wistar Rattus norvegicus (rat) at 150 mg/kg, po qd after 10 days (reference value: 38.77 +/- 4.25 U/I)
Rattus norvegicus [5] = assay: Antipyretic activity in Wistar Rattus norvegicus (rat) assessed as decrease in Brewer's yeast solution-induced hyperthermia at 100 mg/kg, po measured after 2 hr (reference value: 37 +/- 1.7 degC)
Rattus norvegicus [6] = assay: Effect on glutathione peroxidase level in Wistar Rattus norvegicus (rat) liver measured GSH oxidized per min per mg of protein at 100 mg/kg, po after 10 days (reference value: 47.47 +/- 3.86 mmol)
Rattus norvegicus [7] = assay: Effect on SGOT level in Wistar Rattus norvegicus (rat) at 50 mg/kg, po qd after 10 days (reference value: 145.50 +/- 13.86 U/I)
Rattus norvegicus [8] = assay: Effect on SGOT level in Wistar Rattus norvegicus (rat) at 100 mg/kg, po qd after 10 days (reference value: 145.50 +/- 13.86 U/I)
Rattus norvegicus [9] = assay: Effect on GST level in Wistar Rattus norvegicus (rat) liver measured CDNB conjugated per min per mg of protein at 150 mg/kg, po after 10 days (reference value: 0.86 +/- 0.08 mmol)
Rattus norvegicus [10] = assay: Anti-inflammatory activity in Wistar Rattus norvegicus (rat) assessed as inhibition of carrageenan-induced paw edema at 50 mg/kg, po administered 30 min prior to carrageenan challenge measured at 180 min relative to untreated control
Rattus norvegicus [11] = assay: Effect on glutathione reductase level in Wistar Rattus norvegicus (rat) liver measured NADPH oxidized per min per mg of protein at 150 mg/kg, po after 10 days (reference value: 4.19 +/ 0.42 nmol)
Rattus norvegicus [12] = assay: Effect on TBARS level in Wistar Rattus norvegicus (rat) serum at 150 mg/kg, po qd after 10 days (reference value: 0.82 +/- 0.073 nmol/ml)
Rattus norvegicus [13] = assay: Effect on glutathione reductase level in Wistar Rattus norvegicus (rat) liver measured NADPH oxidized per min per mg of protein at 50 mg/kg, po after 10 days (reference value: 4.19 +/ 0.42 nmol)
Rattus norvegicus [14] = assay: Effect on glutathione peroxidase level in Wistar Rattus norvegicus (rat) liver measured GSH oxidized per min per mg of protein at 50 mg/kg, po after 10 days (reference value: 47.47 +/- 3.86 mmol)
Rattus norvegicus [15] = assay: Effect on LDH level in Wistar Rattus norvegicus (rat) serum at 150 mg/kg, po qd after 10 days (reference value: 249.89 +/- 13.26 U/I)
Rattus norvegicus [16] = assay: Antipyretic activity in Wistar Rattus norvegicus (rat) assessed as decrease in Brewer's yeast solution-induced hyperthermia at 100 mg/kg, po measured after 3 hr (reference value: 36.8 +/- 1.9 degC)
Rattus norvegicus [17] = assay: Antipyretic activity in Wistar Rattus norvegicus (rat) assessed as decrease in Brewer's yeast solution-induced hyperthermia at 100 mg/kg, po measured after 1 hr (reference value: 37 +/- 3.55 degC)
Rattus norvegicus [18] = assay: Effect on GSH level in Wistar Rattus norvegicus (rat) liver measured per mg of protein at 100 mg/kg, po after 10 days (reference value: 1.84 +/- 0.092 mg)
Rattus norvegicus [19] = assay: Effect on GST level in Wistar Rattus norvegicus (rat) liver measured CDNB conjugated per min per mg of protein at 100 mg/kg, po after 10 days (reference value: 0.86 +/- 0.08 mmol)
[20] = test system: Radical scavenging activity; assay: Antioxidant activity assessed as DPPH free radical scavenging activity at 6 mg/ml after 5 to 60 min by spectrophotometric analysis
Rattus norvegicus [21] = assay: Anti-inflammatory activity in Wistar Rattus norvegicus (rat) assessed as inhibition of carrageenan-induced paw edema at 150 mg/kg, po administered 30 min prior to carrageenan challenge measured at 60 min relative to untreated control
Rattus norvegicus [22] = assay: Effect on TBARS level in Wistar Rattus norvegicus (rat) serum at 100 mg/kg, po qd after 10 days (reference value: 0.82 +/- 0.073 nmol/ml)
Rattus norvegicus [23] = assay: Anti-inflammatory activity in Wistar Rattus norvegicus (rat) assessed as inhibition of carrageenan-induced paw edema at 100 mg/kg, po administered 30 min prior to carrageenan challenge measured at 180 min relative to untreated control
Rattus norvegicus [24] = assay: Anti-inflammatory activity in Wistar Rattus norvegicus (rat) assessed as inhibition of carrageenan-induced paw edema at 50 mg/kg, po administered 30 min prior to carrageenan challenge measured at 120 min relative to untreated control
Rattus norvegicus [25] = assay: Anti-inflammatory activity in Wistar Rattus norvegicus (rat) assessed as inhibition of carrageenan-induced paw edema at 150 mg/kg, po administered 30 min prior to carrageenan challenge measured at 120 min relative to untreated control
Rattus norvegicus [26] = assay: Anti-inflammatory activity in Wistar Rattus norvegicus (rat) assessed as inhibition of carrageenan-induced paw edema at 100 mg/kg, po administered 30 min prior to carrageenan challenge measured at 90 min relative to untreated control
Rattus norvegicus [27] = assay: Effect on SGPT level in Wistar Rattus norvegicus (rat) at 100 mg/kg, po qd after 10 days (reference value: 38.77 +/- 4.25 U/I)
Rattus norvegicus [28] = assay: Effect on GST level in Wistar Rattus norvegicus (rat) liver measured CDNB conjugated per min per mg of protein at 50 mg/kg, po after 10 days (reference value: 0.86 +/- 0.08 mmol)
Rattus norvegicus [29] = assay: Effect on SGPT level in Wistar Rattus norvegicus (rat) at 50 mg/kg, po qd after 10 days (reference value: 38.77 +/- 4.25 U/I)
Rattus norvegicus [30] = assay: Effect on TBARS level in Wistar Rattus norvegicus (rat) serum at 50 mg/kg, po qd after 10 days (reference value: 0.82 +/- 0.073 nmol/ml)
Rattus norvegicus [31] = assay: Anti-inflammatory activity in Wistar Rattus norvegicus (rat) assessed as inhibition of carrageenan-induced paw edema at 100 mg/kg, po administered 30 min prior to carrageenan challenge measured at 30 min post carrageenan challenge relative to untreated control
Rattus norvegicus [32] = assay: Anti-inflammatory activity in Wistar Rattus norvegicus (rat) assessed as inhibition of carrageenan-induced paw edema at 100 mg/kg, po administered 30 min prior to carrageenan challenge measured at 120 min relative to untreated control

| Structure (SMILES) | Activity (Rattus norvegicus [1]) [U/L] | Activity (Rattus norvegicus [2]) [U/L] | Activity [3] [%] | Activity (Rattus norvegicus [4]) [U/L] | T (Rattus norvegicus [5]) [°C] | Activity (Rattus norvegicus [6]) [mmol] | Activity (Rattus norvegicus [7]) [U/L] | Activity (Rattus norvegicus [8]) [U/L] | Activity (Rattus norvegicus [9]) [mmol] | inhibition in vivo at 50 mg/kg (Rattus norvegicus [10]) [%] | Activity (Rattus norvegicus [11]) [nmol] | Activity (Rattus norvegicus [12]) [nmol/mL] | Activity (Rattus norvegicus [13]) [nmol] | Activity (Rattus norvegicus [14]) [mmol] | Activity (Rattus norvegicus [15]) [U/L] | T (Rattus norvegicus [16]) [°C] | T (Rattus norvegicus [17]) [°C] | Activity (Rattus norvegicus [18]) [mg] | Activity (Rattus norvegicus [19]) [mmol] | Activity [20] | further results |
| --- | --- | --- | --- | --- | --- | --- | --- | --- | --- | --- | --- | --- | --- | --- | --- | --- | --- | --- | --- | --- | --- |
| O=c1c2ccccc2nc2n1NC(c1ccc(O)c(O)c1)C2 (centres undefined) | 37.58 | 0.55 | 22 | 33.26 | 36 | 51.38 | 139.53 | 136.34 | 1.34 | 47 | 5.14 | 0.8 | 4.33 | 49.25 | 238.21 | 36.8 | 37.8 | 1.85 | 1.15 | Active | inhibition in vivo at 150 mg/kg (Rattus norvegicus [21]): 34.2%; Activity (Rattus norvegicus [22]): 0.83 nmol/mL; inhibition in vivo at 100 mg/kg (Rattus norvegicus [23]): 48.3%; inhibition in vivo at 50 mg/kg (Rattus norvegicus [24]): 53.7%; inhibition in vivo at 150 mg/kg (Rattus norvegicus [25]): 58.2%; inhibition in vivo at 100 mg/kg (Rattus norvegicus [26]): 45.9%; Activity (Rattus norvegicus [27]): 36.15 U/L; Activity (Rattus norvegicus [28]): 0.97 mmol; Activity (Rattus norvegicus [29]): 41.97 U/L; Activity (Rattus norvegicus [30]): 0.82 nmol/mL; inhibition in vivo at 100 mg/kg (Rattus norvegicus [31]): 4.58%; inhibition in vivo at 100 mg/kg (Rattus norvegicus [32]): 54.7% |
| COC(=O)c1ccccc1NC(=O)/C=C/c1ccc(O)c(O)c1 | 31.17 | 0.53 | 30 | 40.84 | 36.7 | 53.74 | 135.62 | 133.79 | 1.97 | 65.3 | 6.36 | 0.7 | 4.85 | 49.11 | 232.48 | 36.8 | 37.2 | 2.39 | 1.54 | Active | inhibition in vivo at 150 mg/kg (Rattus norvegicus [21]): 52.7%; Activity (Rattus norvegicus [22]): 0.75 nmol/mL; inhibition in vivo at 100 mg/kg (Rattus norvegicus [23]): 70.7%; inhibition in vivo at 50 mg/kg (Rattus norvegicus [24]): 63.8%; inhibition in vivo at 150 mg/kg (Rattus norvegicus [25]): 76%; inhibition in vivo at 100 mg/kg (Rattus norvegicus [26]): 49.3%; Activity (Rattus norvegicus [27]): 43.21 U/L; Activity (Rattus norvegicus [28]): 1.3 mmol; Activity (Rattus norvegicus [29]): 42.47 U/L; Activity (Rattus norvegicus [30]): 0.77 nmol/mL; inhibition in vivo at 100 mg/kg (Rattus norvegicus [31]): 26.8%; inhibition in vivo at 100 mg/kg (Rattus norvegicus [32]): 64.3% |
